Numbers after ± are expanded uncertainties.
What was measured:
[1] = molar heat capacity at constant pressure; details: 101.33 kPa, Liquid, Vacuum adiabatic calorimetry
[2] = Crystal
[3] = Molar enthalpy of transition or fusion; details: Crystal; Adiabatic calorimetry

CCCCn1cc[n+](C)c1.F[B-](F)(F)F [1-butyl-3-methylimidazolium tetrafluoroborate]
[1]
Details	molar heat capacity at constant pressure [J/K/mol]
189.66 K	332 ± 0.5
191.85 K	332.1 ± 0.5
194.05 K	332.1 ± 0.5
196.25 K	332.7 ± 0.5
198.46 K	332.8 ± 0.5
200.67 K	333.2 ± 0.5
202.89 K	333.7 ± 0.5
205.12 K	334 ± 0.5
207.35 K	334.5 ± 0.5
209.58 K	335 ± 0.5
211.82 K	335.5 ± 0.5
214.06 K	335.9 ± 0.5
216.3 K	336.8 ± 0.5
218.55 K	337.2 ± 0.5
220.8 K	337.8 ± 0.5
223.05 K	338.8 ± 0.5
225.31 K	339.2 ± 0.5
227.56 K	339.9 ± 0.5
229.82 K	340.4 ± 0.5
232.09 K	340.9 ± 0.5
236.62 K	342.8 ± 0.5
238.89 K	343.3 ± 0.5
241.18 K	344.4 ± 0.5
243.46 K	345.4 ± 0.5
245.73 K	345.8 ± 0.5
248.01 K	346.6 ± 0.5
250.29 K	347.5 ± 0.6
252.57 K	348.5 ± 0.6
254.85 K	349 ± 0.6
257.13 K	350.2 ± 0.6
259.41 K	351 ± 0.6
261.7 K	351.4 ± 0.6
263.98 K	352.6 ± 0.6
266.27 K	353.5 ± 0.6
268.56 K	354.6 ± 0.6
270.84 K	355.7 ± 0.6
273.13 K	356.4 ± 0.6
275.42 K	357.4 ± 0.6
277.72 K	358.3 ± 0.6
280.02 K	359.2 ± 0.6
282.31 K	360.2 ± 0.6
284.6 K	361.6 ± 0.6
286.89 K	362.1 ± 0.6
289.17 K	363.3 ± 0.6
291.46 K	364.2 ± 0.6
293.74 K	365.4 ± 0.6
296.02 K	366.3 ± 0.6
298.3 K	367 ± 0.6
300.57 K	368.2 ± 0.6
302.84 K	368.7 ± 0.6
305.11 K	370 ± 0.6
307.38 K	371.1 ± 0.6
309.64 K	372.6 ± 0.6
311.9 K	373.5 ± 0.6
314.16 K	374.2 ± 0.6
316.43 K	375.5 ± 0.6
318.69 K	376.9 ± 0.6
320.95 K	377.9 ± 0.6
323.2 K	378.9 ± 0.6
325.45 K	379.6 ± 0.6
327.7 K	381.1 ± 0.6
329.95 K	381.9 ± 0.6
332.2 K	382.6 ± 0.6
334.45 K	384.1 ± 0.6
336.69 K	384.9 ± 0.6
338.94 K	386 ± 0.6
341.18 K	387.3 ± 0.6
343.42 K	388.6 ± 0.6
345.66 K	389.8 ± 0.6
347.9 K	390.7 ± 0.6
350.14 K	391.8 ± 0.6
352.38 K	392.4 ± 0.6
354.62 K	393.9 ± 0.6
356.85 K	394.2 ± 0.6
359.08 K	395.7 ± 0.6
361.31 K	396.6 ± 0.6
363.54 K	397.9 ± 0.6
365.76 K	399 ± 0.6
367.98 K	400.1 ± 0.6

CCCCCCCCCCCCCCn1cc[n+](C)c1.O=S(=O)([N-]S(=O)(=O)C(F)(F)F)C(F)(F)F
[1]
Details	molar heat capacity at constant pressure [J/K/mol]
309.98 K	896.3 ± 1.1
310.38 K	898 ± 1.1
311.13 K	898.7 ± 1.1
312.28 K	899.5 ± 1.1
312.7 K	900.9 ± 1.1
313.43 K	900.5 ± 1.1
314.58 K	902.3 ± 1.1
315.01 K	903.4 ± 1.1
315.73 K	903.4 ± 1.1
316.88 K	904.2 ± 1.1
317.32 K	905.3 ± 1.1
318.04 K	904 ± 1.1
319.19 K	906.1 ± 1.1
319.63 K	907.1 ± 1.1
320.34 K	907.5 ± 1.1
321.49 K	908.6 ± 1.1
321.94 K	909.6 ± 1.1
322.64 K	909.2 ± 1.1
323.79 K	910.6 ± 1.1
324.94 K	913.1 ± 1.1
326.1 K	913.5 ± 1.1
327.25 K	914.4 ± 1.1
328.4 K	915.1 ± 1.1
329.55 K	915.9 ± 1.1
330.69 K	918.6 ± 1.1
331.84 K	918.3 ± 1.1
332.99 K	919.1 ± 1.1
334.14 K	920.6 ± 1.1
335.29 K	922.4 ± 1.1
336.45 K	923 ± 1.1
337.6 K	924.6 ± 1.1
338.75 K	925.5 ± 1.1
339.89 K	926.2 ± 1.1
341.04 K	927.4 ± 1.1
342.19 K	927.9 ± 1.1
343.33 K	929.9 ± 1.1
344.48 K	930.4 ± 1.1
345.62 K	931.8 ± 1.1
346.77 K	933.1 ± 1.1
347.91 K	933.9 ± 1.1
349.06 K	935.2 ± 1.1
350.2 K	936.7 ± 1.1
351.91 K	939.3 ± 1.1
354.21 K	941.3 ± 1.1
356.51 K	943.4 ± 1.1
358.83 K	945.8 ± 1.1
361.14 K	947.9 ± 1.1
363.45 K	949.8 ± 1.2
365.76 K	951.8 ± 1.2
368.07 K	953.3 ± 1.2

Details	Molar enthalpy of transition or fusion [kcal/mol]	Triple point temperature [K]
[2]	–	308.72 ± 0.6
[3]	9.536 ± 0.0239	–

Source: the NIST ThermoML archive (doi:10.1021/je900974u)
